Measured values from PubChem BioAssay AID1259407 (Chemical Carcinogenesis Research Information System (CCRIS), 2018).
Activity calls are given as the source filed them. The rule behind the calls is not given here.

Tested on: CCRIS mutagenicity, Ames/micronucleus/aberration tests
Test: CCRIS mutagenicity studies
[1] = Test System: AMES SALMONELLA TYPHIMURIUM, Strain/Indicator: TA98, Metabolic Activation: NONE, Method: STANDARD PLATE
[2] = Test System: AMES SALMONELLA TYPHIMURIUM, Strain/Indicator: TA100, Metabolic Activation: NONE, Method: STANDARD PLATE

O=[N+]([O-])c1cccc(CO/N=C/c2nc3cc([N+](=O)[O-])ccc3n2Cc2ccc(F)cc2)c1
mutagenic call [1]: inactive; negative
mutagenic call (Test System: AMES SALMONELLA TYPHIMURIUM, Strain/Indicator: TA98, Metabolic Activation: RAT, LIVER, S-9, PHENOBARBITAL AND BETA-NAPHTHOFLAVONE, Method: STANDARD PLATE): inactive; negative
mutagenic call [2]: inactive; negative
mutagenic call (Test System: AMES SALMONELLA TYPHIMURIUM, Strain/Indicator: TA100, Metabolic Activation: RAT, LIVER, S-9, PHENOBARBITAL AND BETA-NAPHTHOFLAVONE, Method: STANDARD PLATE): inactive; negative

Cc1cc(O)cc2oc(=O)c3c(O)cc(O)cc3c12
mutagenic call [1]: inactive; negative
mutagenic call (Test System: AMES SALMONELLA TYPHIMURIUM, Strain/Indicator: TA98, Metabolic Activation: RAT LIVER S-9, AROCLOR 1254, Method: STANDARD PLATE): inactive; negative
mutagenic call (Test System: AMES SALMONELLA TYPHIMURIUM, Strain/Indicator: TA98, Metabolic Activation: RAT, LIVER, S-9, AROCLOR 1254, Method: STANDARD PLATE): inactive; negative
mutagenic call [2]: inactive; negative
mutagenic call (Test System: AMES SALMONELLA TYPHIMURIUM, Strain/Indicator: TA100, Metabolic Activation: RAT LIVER S-9, AROCLOR 1254, Method: STANDARD PLATE): inactive; negative
mutagenic call (Test System: AMES SALMONELLA TYPHIMURIUM, Strain/Indicator: TA100, Metabolic Activation: RAT, LIVER, S-9, AROCLOR 1254, Method: STANDARD PLATE): inactive; negative
mutagenic call (Test System: Ames Salmonella typhimurium, Strain/Indicator: TA97, Metabolic Activation: None, Method: Standard plate): inactive; negative. nitrosation did not increase mutagenic activity
mutagenic call (Test System: Ames Salmonella typhimurium, Strain/Indicator: TA97, Metabolic Activation: Rat, Liver, S-9, Aroclor 1254 (10%), Method: Standard plate): inactive; negative. nitrosation did not increase mutagenic activity
mutagenic call (Test System: Ames Salmonella typhimurium, Strain/Indicator: TA102, Metabolic Activation: None, Method: Standard plate): active; positive. nitrosation led to mutagenic product
mutagenic call (Test System: Ames Salmonella typhimurium, Strain/Indicator: TA102, Metabolic Activation: Rat, Liver, S-9, Aroclor 1254 (10%), Method: Standard plate): active; positive. nitrosation led to mutagenic product
mutagenic call (Test System: Ames Salmonella typhimurium, Strain/Indicator: TA104, Metabolic Activation: None, Method: Standard plate): inactive; negative. nitrosation did not increase mutagenic activity
mutagenic call (Test System: Ames Salmonella typhimurium, Strain/Indicator: TA104, Metabolic Activation: Rat, Liver, S-9, Aroclor 1254 (10%), Method: Standard plate): inactive; negative. nitrosation did not increase mutagenic activity

Oc1ccc2c(ccc3[nH]c4ccc5ccccc5c4c32)c1
mutagenic call [1]: inactive; negative
mutagenic call (Test System: AMES SALMONELLA TYPHIMURIUM, Strain/Indicator: TA98, Metabolic Activation: RAT, LIVER, S-9, 3-METHYLCHOLANTHRENE, Method: STANDARD PLATE): active; positive
mutagenic call [2]: inactive; negative
mutagenic call (Test System: AMES SALMONELLA TYPHIMURIUM, Strain/Indicator: TA100, Metabolic Activation: RAT, LIVER, S-9, 3-METHYLCHOLANTHRENE, Method: STANDARD PLATE): active; positive
mutagenic call (Test System: AMES SALMONELLA TYPHIMURIUM, Strain/Indicator: TM677, Metabolic Activation: NONE, Method: PREINCUBATION): inactive; negative
mutagenic call (Test System: AMES SALMONELLA TYPHIMURIUM, Strain/Indicator: TM677, Metabolic Activation: RAT, LIVER, S-9, 3-METHYLCHOLANTHRENE (1%), Method: PREINCUBATION): active; positive
mutagenic call (Test System: AMES SALMONELLA TYPHIMURIUM, Strain/Indicator: TM677, Metabolic Activation: RAT, LIVER, S-9, 3-METHYLCHOLANTHRENE (10%), Method: PREINCUBATION): active; positive
mutagenic call (Test System: AMES SALMONELLA TYPHIMURIUM, Strain/Indicator: TM677, Metabolic Activation: RAT, LIVER, S-9, AROCLOR 1254 (10%), Method: PREINCUBATION): active; positive

C=CCCCCCCCCCCCC
mutagenic call [1]: inactive; negative
mutagenic call (Test System: AMES SALMONELLA TYPHIMURIUM, Strain/Indicator: TA98, Metabolic Activation: RAT, LIVER, S-9, AROCLOR, Method: STANDARD PLATE): inactive; negative
mutagenic call [2]: inactive; negative
mutagenic call (Test System: AMES SALMONELLA TYPHIMURIUM, Strain/Indicator: TA100, Metabolic Activation: RAT, LIVER, S-9, AROCLOR, Method: STANDARD PLATE): inactive; negative
mutagenic call (Test System: AMES SALMONELLA TYPHIMURIUM, Strain/Indicator: UTH8413, Metabolic Activation: NONE, Method: STANDARD PLATE): inactive; negative
mutagenic call (Test System: AMES SALMONELLA TYPHIMURIUM, Strain/Indicator: UTH8413, Metabolic Activation: RAT, LIVER, S-9, AROCLOR, Method: STANDARD PLATE): inactive; negative
mutagenic call (Test System: AMES SALMONELLA TYPHIMURIUM, Strain/Indicator: UTH8414, Metabolic Activation: NONE, Method: STANDARD PLATE): inactive; negative
mutagenic call (Test System: AMES SALMONELLA TYPHIMURIUM, Strain/Indicator: UTH8414, Metabolic Activation: RAT, LIVER, S-9, AROCLOR, Method: STANDARD PLATE): inactive; negative

COc1cc(CCCS(=O)(=O)O)ccc1O[C@H](Cc1cccc(OC)c1O)CS(=O)(=O)O
mutagenic call (Test System: AMES SALMONELLA TYPHIMURIUM, Strain/Indicator: TA98, Metabolic Activation: HAMSTER, LIVER, S-9, AROCLOR 1254, Method: PREINCUBATION): inactive; negative
mutagenic call (Test System: AMES SALMONELLA TYPHIMURIUM, Strain/Indicator: TA98, Metabolic Activation: NONE, Method: PREINCUBATION): inactive; negative
mutagenic call (Test System: AMES SALMONELLA TYPHIMURIUM, Strain/Indicator: TA98, Metabolic Activation: RAT, LIVER, S-9, AROCLOR 1254, Method: PREINCUBATION): inactive; negative
mutagenic call (Test System: AMES SALMONELLA TYPHIMURIUM, Strain/Indicator: TA100, Metabolic Activation: HAMSTER, LIVER, S-9, AROCLOR 1254, Method: PREINCUBATION): inactive; negative
mutagenic call (Test System: AMES SALMONELLA TYPHIMURIUM, Strain/Indicator: TA100, Metabolic Activation: NONE, Method: PREINCUBATION): inactive; negative
mutagenic call (Test System: AMES SALMONELLA TYPHIMURIUM, Strain/Indicator: TA100, Metabolic Activation: RAT, LIVER, S-9, AROCLOR 1254, Method: PREINCUBATION): inactive; negative
mutagenic call (Test System: AMES SALMONELLA TYPHIMURIUM, Strain/Indicator: TA1535, Metabolic Activation: HAMSTER, LIVER, S-9, AROCLOR 1254, Method: PREINCUBATION): inactive; negative
mutagenic call (Test System: AMES SALMONELLA TYPHIMURIUM, Strain/Indicator: TA1535, Metabolic Activation: NONE, Method: PREINCUBATION): inactive; negative
mutagenic call (Test System: AMES SALMONELLA TYPHIMURIUM, Strain/Indicator: TA1535, Metabolic Activation: RAT, LIVER, S-9, AROCLOR 1254, Method: PREINCUBATION): inactive; negative
mutagenic call (Test System: AMES SALMONELLA TYPHIMURIUM, Strain/Indicator: TA1537, Metabolic Activation: HAMSTER, LIVER, S-9, AROCLOR 1254, Method: PREINCUBATION): inactive; negative
mutagenic call (Test System: AMES SALMONELLA TYPHIMURIUM, Strain/Indicator: TA1537, Metabolic Activation: NONE, Method: PREINCUBATION): inactive; negative
mutagenic call (Test System: AMES SALMONELLA TYPHIMURIUM, Strain/Indicator: TA1537, Metabolic Activation: RAT, LIVER, S-9, AROCLOR 1254, Method: PREINCUBATION): inactive; negative

CCN(C(=O)CCCCl)c1snc2ccccc12
mutagenic call [1]: inactive; negative
mutagenic call (Test System: AMES SALMONELLA TYPHIMURIUM, Strain/Indicator: TA98, Metabolic Activation: S-9, Method: STANDARD PLATE): inactive; negative
mutagenic call [2]: inactive; negative
mutagenic call (Test System: AMES SALMONELLA TYPHIMURIUM, Strain/Indicator: TA100, Metabolic Activation: S-9, Method: STANDARD PLATE): inactive; negative
mutagenic call (Test System: AMES SALMONELLA TYPHIMURIUM, Strain/Indicator: TA1535, Metabolic Activation: NONE, Method: STANDARD PLATE): inactive; negative
mutagenic call (Test System: AMES SALMONELLA TYPHIMURIUM, Strain/Indicator: TA1535, Metabolic Activation: S-9, Method: STANDARD PLATE): inactive; negative
mutagenic call (Test System: AMES SALMONELLA TYPHIMURIUM, Strain/Indicator: TA1537, Metabolic Activation: NONE, Method: STANDARD PLATE): inactive; negative
mutagenic call (Test System: AMES SALMONELLA TYPHIMURIUM, Strain/Indicator: TA1537, Metabolic Activation: S-9, Method: STANDARD PLATE): inactive; negative
